Reference: US8741645B2, “Test kit comprising a culture instrument with a cell pattern and a gel suitable to embed cell pattern” (Dai Nippon Printing Co., Ltd., priority 2006, dated 2014)

Assays:
Type in all cases: cell-based
[1] = tested on: bovine aortic vascular endothelial cells; test: Lumen formation test (cell shrinkage), cell pattern sandwiched between substrate and GFR Matrigel (configuration of FIG. 3); set-up: key: ∘: Large inhibition effect; Δ: Small inhibition effect; x: No inhibition effect; settings: inhibitor previously added; shrinkage of multiple cells observed, GFR Matrigel
Procedure: (§1) An autoclave-sterilized substrate was arranged within a culture container and then an appropriate amount of MEM medium containing 5% fetal calf serum was added. 2.0×10^5 bovine aortic vascular endothelial cells were seeded per substrate. After 72 hours of culture, cells adhered only to oxidatively degraded regions and reached confluency on the lines each having a width of 60 μm.
200 μl of ice-cooled Growth Factor Reduced (GFR) Matrigel (Becton, Dickinson and Company) was spread over a culture container and then allowed to stand at room temperature for approximately 1 minute. The substrate was gently placed with its cell adhesion face down onto the matrigel. The resultant was allowed to stand for approximately 5 minutes while maintaining this condition. After complete gelling, MEM medium containing 5% fetal calf serum was added and then the substrate was immersed in the medium. The culture container was transferred into an incubator (37° C., 5% CO2) and then cells were cultured while being sandwiched between a substrate and matrigel. […] This is a phenomenon that is characteristically observed when vascular endothelial cells undergo lumen formation in response to differentiation signals coming from the extracellular matrix. When a vascularization inhibitor had been previously added to the three-dimensional culture system, shrinkage of multiple cells was inhibited or not inhibited according to the relevant pharmacologic action (Table 1). This means that the effect of a drug on lumen formation can be efficiently tested via observation of cell shrinkage that is observed at the initial stage of differentiation. This test method could also be performed for normal human umbilical vein endothelial cells in completely the same manner.

[2] = tested on: bovine aortic vascular endothelial cells; test: Vascularization test, three-dimensional culture of cell pattern in collagen gel (configuration of FIG. 2); settings: 50 μM added to three-dimensional culture system, medium with proliferation factors
Procedure: as §1, with “48” for “72”, “culture within an incubator (37° C., 5% CO2),” for “culture,”
A collagen solution was prepared on ice using a collagen gel culture kit (Cellmatrix I-A, Nitta gelatin). 500 μl of the solution was spread flatly over a 28 mm×33 mm well, followed by 10 minutes of gelling at 37° C. 2 ml of MEM medium containing 5% fetal calf serum was added to the gel. The substrate was caused to sink while upside-down in the medium, so that cells that had adhered to the substrate were caused to come into contact with collagen gel at the bottom. After 4 hours of culture within an incubator, the substrate was carefully removed using a pair of tweezers. […] The medium was removed by suction, 250 μl of the collagen solution was applied in layers to the cells, and then gelling was performed at 37° C. for 10 minutes. […]

[3] = tested on: Normal human (adult) dermal fibroblasts; test: Cell migration and proliferation of linear cell pattern embedded in collagen gel (configuration of FIG. 3); settings: 10 μM in culture solution; observed at 3, 6, 9 and 21 hours; compared with culture solution and DMSO systems
Procedure: The above dish was sterilized with 70% ethanol. Normal human (adult) dermal fibroblasts (KF-4109, Cascade Biologics) dispersed in a culture solution (basal medium M-106-500S, additive agent KE-6350, and Cascade Biologics/KURABO) was seeded at 4×10^5 cells per dish. Cells were cultured using an incubator under conditions of 37° C. and 5% CO2 for 18 hours. A linear pattern formed by cells that had adhered was obtained.
Cell aggregates were embedded into gel that had been prepared using the collagen gel kit used in Example 5 and then three-dimensional culture was performed with the configuration of FIG. 3. After 30 minutes of gelling at 37° C., three types of culture were performed using (1) a system containing the above culture solution, (2) a system containing a culture solution prepared by adding 10 μM inhibitor PP2 to the above culture solution, and (3) a system containing a culture solution containing DMSO with the same concentration as that of DMSO (used as a solvent for preparing 1 mM stock solution of PP2) contained in the above-prepared culture solution containing PP2.

Compound	Inhibition effect (inhibiting lumen formation) [1]	vascularization [2]	cell migration [3]	cell proliferation [3]
C[C@@H](N)[C@H]1CC[C@H](C(=O)Nc2ccncc2)CC1 [Y27632]	x	–	–	–
Cc1ccc(C(=O)Nc2ccc(S(=O)(=O)O)c3cc(S(=O)(=O)O)cc(S(=O)(=O)O)c23)cc1NC(=O)c1cccc(NC(=O)Nc2cccc(C(=O)Nc3cc(C(=O)Nc4ccc(S(=O)(=O)O)c5cc(S(=O)(=O)O)cc(S(=O)(=O)O)c45)ccc3C)c2)c1 [Suramin]	x	completely inhibited	–	–
N=C(N)NC(=O)c1nc(Cl)c(N)nc1N [Amiloride]	x	–	–	–
O=c1cc(N2CCOCC2)oc2c(-c3ccccc3)cccc12 [LY294002]	Δ	–	–	–
CC(C)(C)n1nc(-c2ccc(Cl)cc2)c2c(N)ncnc21 [PP2]	∘	–	significantly suppressed	significantly suppressed
CN(C)c1ccc(O)c2c1C[C@H]1C[C@H]3[C@H](N(C)C)C(O)=C(C(N)=O)C(=O)[C@@]3(O)C(O)=C1C2=O [Minocycline]	x	–	–	–
